Several values for one entry are separate records, joined by “and”; a condition that tells them apart may be missing. Equal values may be shown once. Toxic doses and inconclusive results are not listed.
Test system: BDF1 mice, P388 leukemia ip, median survival T/C
Experiment: NCI In Vivo Anticancer Drug Screen. Data for tumor model P388 Leukemia (intraperitoneal) in B6D2F1 (BDF1) mice
Conditions: endpoint: median survival time, higher = longer survival
Outline: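 Compound-treated tumour-bearing mice were compared with vehicle-treated controls. Survival was recorded, and the value is the treated-group measurement divided by the control-group measurement (T/C).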

[1] = dose: 100.0 mg/kg/injection, schedule: Q01DX009 (ip), vehicle: saline with Tween-80
[2] = dose: 200.0 mg/kg/injection, schedule: Q01DX009 (ip), vehicle: saline with Tween-80
[3] = dose: 400.0 mg/kg/injection, schedule: Q01DX009 (ip), vehicle: saline with Tween-80
[4] = dose: 400.0 mg/kg/injection, schedule: Q04DX003 (ip), vehicle: saline with Tween-80
[5] = dose: 50.0 mg/kg/injection, schedule: Q01DX009 (ip), vehicle: saline with Tween-80
[6] = dose: 100.0 mg/kg/injection, schedule: Q04DX003 (ip), vehicle: saline with Tween-80
[7] = dose: 200.0 mg/kg/injection, schedule: Q04DX003 (ip), vehicle: saline with Tween-80
[8] = dose: 12.5 mg/kg/injection, schedule: Q01DX009 (ip), vehicle: Klucel (hydroxypropylcellulose) (HPC)
[9] = dose: 50.0 mg/kg/injection, schedule: Q01DX009 (ip), vehicle: Klucel (hydroxypropylcellulose) (HPC)
[10] = dose: 100.0 mg/kg/injection, schedule: Q01DX001 (ip), vehicle: Klucel (hydroxypropylcellulose) (HPC)
[11] = dose: 100.0 mg/kg/injection, schedule: Q01DX009 (ip), vehicle: Klucel (hydroxypropylcellulose) (HPC)
[12] = dose: 200.0 mg/kg/injection, schedule: Q01DX001 (ip), vehicle: Klucel (hydroxypropylcellulose) (HPC)
[13] = dose: 200.0 mg/kg/injection, schedule: Q01DX009 (ip), vehicle: Klucel (hydroxypropylcellulose) (HPC)
[14] = dose: 400.0 mg/kg/injection, schedule: Q01DX009 (ip), vehicle: Klucel (hydroxypropylcellulose) (HPC)
[15] = dose: 12.5 mg/kg/injection, schedule: Q01DX009 (ip), vehicle: saline with Tween-80
[16] = dose: 25.0 mg/kg/injection, schedule: Q01DX009 (ip), vehicle: saline with Tween-80
[17] = dose: 400.0 mg/kg/injection, schedule: Q04DX003 (ip), vehicle: Klucel (hydroxypropylcellulose) (HPC)

## Cc1ccccc1-c1nc2c(N)nc(N)nc2nc1N
[1]
  T/C: 122 % of control
[2]
  T/C: 163 % of control
dose: 264.0 mg/kg/injection, schedule: Q04DX003 (ip), vehicle: saline with Tween-80
  T/C: 100 % of control and 104 % of control
[3]
  T/C: 200 % of control
[4]
  T/C: 118 % of control
dose: 600.0 mg/kg/injection, schedule: Q04DX003 (ip), vehicle: saline with Tween-80
  T/C: 118 % of control

## Oc1ccccc1C=NC1CCCCC1.Oc1ccccc1C=NC1CCCCC1.[Co+2]
dose: 50.0 mg/kg/injection, schedule: Q01DX001 (ip), vehicle: saline sonified
  T/C: 90 % of control
dose: 100.0 mg/kg/injection, schedule: Q01DX001 (ip), vehicle: saline sonified
  T/C: 109 % of control
dose: 200.0 mg/kg/injection, schedule: Q01DX001 (ip), vehicle: saline sonified
  T/C: 109 % of control

## O=C1OC(c2ccccc2)(c2ccccc2)Cc2ccccc21
[1]
  T/C: 105 % of control
[2]
  T/C: 105 % of control
[3]
  T/C: 100 % of control

## COc1cc([N+](=O)[O-])cc(C=O)c1OC(=O)c1ccccc1
[5]
  T/C: 109 % of control
[1]
  T/C: 123 % of control

## CC(C)=CC(=O)n1nc2c(c1CC(C)C)C(=O)C(Nc1ccccc1)=CC2=O
[6]
  T/C: 93 % of control
[7]
  T/C: 90 % of control
[4]
  T/C: 100 % of control

## COC(=O)Nc1cccc(-c2nc3ccc(NC(=O)OC)cc3c(=O)n2-c2ccccc2)c1
dose: 6.25 mg/kg/injection, schedule: Q01DX009 (ip), vehicle: Klucel (hydroxypropylcellulose) (HPC)
  T/C: 108 % of control
[8]
  T/C: 117 % of control
dose: 25.0 mg/kg/injection, schedule: Q01DX009 (ip), vehicle: saline
  T/C: 150 % of control
dose: 25.0 mg/kg/injection, schedule: Q01DX009 (oral), vehicle: Klucel (hydroxypropylcellulose) (HPC)
  T/C: 107 % of control
[9]
  T/C: 213 % of control
dose: 50.0 mg/kg/injection, schedule: Q01DX009 (ip), vehicle: saline
  T/C: 155 % of control
dose: 50.0 mg/kg/injection, schedule: Q01DX009 (oral), vehicle: Klucel (hydroxypropylcellulose) (HPC)
  T/C: 109 % of control
dose: 100.0 mg/kg/injection, schedule: Q01DX009 (ip), vehicle: saline
  T/C: 186 % of control
dose: 100.0 mg/kg/injection, schedule: Q01DX009 (oral), vehicle: Klucel (hydroxypropylcellulose) (HPC)
  T/C: 109 % of control
dose: 800.0 mg/kg/injection, schedule: Q01DX009 (oral), vehicle: Klucel (hydroxypropylcellulose) (HPC)
  T/C: 155 % of control

## OC1(O)COC(c2ccccc2)OC1
[10]
  T/C: 104 % of control
[11]
  T/C: 120 % of control
[12]
  T/C: 104 % of control
[13]
  T/C: 110 % of control
dose: 400.0 mg/kg/injection, schedule: Q01DX001 (ip), vehicle: Klucel (hydroxypropylcellulose) (HPC)
  T/C: 100 % of control
[14]
  T/C: 115 % of control

## C=CC1CC[N-]CC1.C=CC1CC[N-]CC1.C=CC1CC[N-]CC1.[Cl][Cr]([Cl])[Cl]
[15]
  T/C: 100 % of control
[16]
  T/C: 109 % of control
[5]
  T/C: 104 % of control

## O=C1NS(=O)(=O)c2ccccc21
[5]
  T/C: 100 % of control
[1]
  T/C: 90 % of control
[2]
  T/C: 103 % of control

## Cc1ccc(C)c(CCO)c1
dose: 45.0 mg/kg/injection, schedule: Q01DX009 (ip), vehicle: other
  T/C: 105 % of control
[9]
  T/C: 108 % of control
dose: 65.0 mg/kg/injection, schedule: Q01DX009 (ip), vehicle: other
  T/C: 100 % of control
[11]
  T/C: 100 % of control
dose: 100.0 mg/kg/injection, schedule: Q01DX009 (ip), vehicle: other
  T/C: 100 % of control
[6]
  T/C: 109 % of control
dose: 150.0 mg/kg/injection, schedule: Q01DX009 (ip), vehicle: other
  T/C: 105 % of control
[13]
  T/C: 112 % of control
dose: 200.0 mg/kg/injection, schedule: Q01DX009 (ip), vehicle: other
  T/C: 104 % of control and 120 % of control
[7]
  T/C: 109 % of control

## CCCCN(C(C)(C)C(SSSC(c1ccc(Cl)cc1)C(C)(C)N(CCCC)S(C)(=O)=O)c1ccc(Cl)cc1)S(C)(=O)=O (stereo not drawn)
dose: 25.0 mg/kg/injection, schedule: Q04DX003 (ip), vehicle: saline with Tween-80
  T/C: 100 % of control
dose: 50.0 mg/kg/injection, schedule: Q04DX003 (ip), vehicle: saline with Tween-80
  T/C: 100 % of control

## O=C(NN(c1ccc([N+](=O)[O-])cc1)c1ccc([N+](=O)[O-])cc1)c1ccccc1
[9]
  T/C: 100 % of control
[11]
  T/C: 105 % of control
[13]
  T/C: 105 % of control

## CC(=O)OC1CC2c3ccccc3C1c1cccc[n+]12 (stereo not drawn)
dose: 2.34 mg/kg/injection, schedule: Q01DX009 (ip), vehicle: Klucel (hydroxypropylcellulose) (HPC)
  T/C: 87 % of control
dose: 4.68 mg/kg/injection, schedule: Q01DX009 (ip), vehicle: Klucel (hydroxypropylcellulose) (HPC)
  T/C: 91 % of control
dose: 9.37 mg/kg/injection, schedule: Q01DX009 (ip), vehicle: Klucel (hydroxypropylcellulose) (HPC)
  T/C: 91 % of control
dose: 18.75 mg/kg/injection, schedule: Q01DX009 (ip), vehicle: Klucel (hydroxypropylcellulose) (HPC)
  T/C: 87 % of control

## O=NN(CCCl)C(=O)Nc1ccc(Cl)cc1
dose: 8.2 mg/kg/injection, schedule: Q04DX003 (ip), vehicle: saline with Tween-80
  T/C: 195 % of control
dose: 12.5 mg/kg/injection, schedule: Q04DX003 (ip), vehicle: saline with Tween-80
  T/C: 195 % of control
dose: 18.75 mg/kg/injection, schedule: Q04DX003 (ip), vehicle: saline with Tween-80
  T/C: 200 % of control

## Oc1ccc2ccccc2c1/C=N\Sc1ccc(Cl)cc1
[15]
  T/C: 90 % of control
[16]
  T/C: 96 % of control
[5]
  T/C: 106 % of control

## Clc1ccc(C(Cl)(Cl)Cl)cc1Cl
[8]
  T/C: 95 % of control
dose: 25.0 mg/kg/injection, schedule: Q01DX009 (ip), vehicle: Klucel (hydroxypropylcellulose) (HPC)
  T/C: 100 % of control
[9]
  T/C: 100 % of control

## O=P(O)(Oc1ccccc1)Oc1ccccc1.[Al]
[5]
  T/C: 104 % of control
[1]
  T/C: 95 % of control
[2]
  T/C: 95 % of control

## COc1cccc2c1C(=O)c1c(O)c3c(c(O)c1C2=O)CC(O)(C(=O)CO)CC3OC1CC(N)C(O)C(C)O1 (stereo not drawn) (tested in a mixture with another compound)
dose: 1.56 mg/kg/injection, schedule: Q01DX009 (ip), vehicle: other
  T/C: 118 % of control
dose: 3.13 mg/kg/injection, schedule: Q01DX009 (ip), vehicle: other
  T/C: 106 % of control
dose: 6.25 mg/kg/injection, schedule: Q01DX009 (ip), vehicle: other
  T/C: 93 % of control
dose: 12.5 mg/kg/injection, schedule: Q01DX009 (ip), vehicle: other
  T/C: 108 % of control

## O=C(CCCCC(=O)Nc1ccc(C2=NCCN2)cc1)Nc1ccc(C2=NCCN2)cc1
dose: 3.6 mg/kg/injection, schedule: Q01DX009 (ip), vehicle: Klucel (hydroxypropylcellulose) (HPC)
  T/C: 104 % of control
dose: 5.4 mg/kg/injection, schedule: Q01DX009 (ip), vehicle: Klucel (hydroxypropylcellulose) (HPC)
  T/C: 100 % of control
dose: 65.0 mg/kg/injection, schedule: Q01DX009 (ip), vehicle: Klucel (hydroxypropylcellulose) (HPC)
  T/C: 168 % of control
[11]
  T/C: 190 % of control
dose: 100.0 mg/kg/injection, schedule: Q04DX003 (ip), vehicle: other
  T/C: 111 % of control
dose: 132.0 mg/kg/injection, schedule: Q01DX009 (ip), vehicle: Klucel (hydroxypropylcellulose) (HPC)
  T/C: 204 % of control
[13]
  T/C: 225 % of control and 172 % of control and 209 % of control
dose: 200.0 mg/kg/injection, schedule: Q04DX003 (ip), vehicle: other
  T/C: 116 % of control
dose: 264.0 mg/kg/injection, schedule: Q04DX003 (ip), vehicle: Klucel (hydroxypropylcellulose) (HPC)
  T/C: 180 % of control
dose: 300.0 mg/kg/injection, schedule: Q01DX009 (ip), vehicle: Klucel (hydroxypropylcellulose) (HPC)
  T/C: 257 % of control and 213 % of control
[14]
  T/C: 100 % of control
[17]
  T/C: 225 % of control and 168 % of control
dose: 400.0 mg/kg/injection, schedule: Q04DX003 (ip), vehicle: other
  T/C: 161 % of control

## O=C(c1ccc([N+](=O)[O-])cc1)C(Br)C(Br)c1ccncc1 (stereo not drawn)
dose: 50.0 mg/kg/injection, schedule: Q01DX001 (ip), vehicle: Klucel (hydroxypropylcellulose) (HPC)
  T/C: 105 % of control
[10]
  T/C: 110 % of control
dose: 100.0 mg/kg/injection, schedule: Q04DX003 (ip), vehicle: Klucel (hydroxypropylcellulose) (HPC)
  T/C: 113 % of control
[12]
  T/C: 115 % of control
dose: 200.0 mg/kg/injection, schedule: Q04DX003 (ip), vehicle: Klucel (hydroxypropylcellulose) (HPC)
  T/C: 113 % of control
[17]
  T/C: 113 % of control
